Assays:
Format in all cases: in vivo
[1] = tested on: Kochia (Kochia scoparia); assay: Test A preemergence; settings: Bassia scoparia, pre-emergence, 240 h, preemergence, 0 to 100 scale where 0 is no effect and 100 is complete control, read-out: Kochia plant response rating
Summary of the method: (§1)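 Ratings of 0 (no effect) to 100 (complete control) come from visual comparison with untreated controls roughly 10 d after treatment. Test chemicals, formulated in a non-phytotoxic solvent mixture with surfactant, were applied either as a preemergence directed soil spray on seeded soil or postemergence to one- to two-leaf plants 2 to 10 cm tall.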

[2] = tested on: giant foxtail (Setaria faberii); assay: Test A preemergence; settings: Setaria faberi, pre-emergence, 240 h, preemergence, 0 to 100 scale where 0 is no effect and 100 is complete control, read-out: Foxtail, Giant plant response rating
Summary of the method: as §1

[3] = tested on: barnyardgrass (Echinochloa crus-galli); assay: Test A preemergence; settings: Echinochloa crus-galli, pre-emergence, 240 h, preemergence, 0 to 100 scale where 0 is no effect and 100 is complete control, read-out: Barnyardgrass plant response rating
Summary of the method: as §1

[4] = tested on: ryegrass, Italian (Italian ryegrass, Lolium multiflorum); assay: Test A preemergence; settings: Lolium multiflorum, pre-emergence, 240 h, preemergence, 0 to 100 scale where 0 is no effect and 100 is complete control, read-out: Ryegrass, Italian plant response rating
Summary of the method: as §1

[5] = tested on: pigweed (Amaranthus retroflexus); assay: Test A preemergence; settings: Amaranthus retroflexus, pre-emergence, 240 h, preemergence, 0 to 100 scale where 0 is no effect and 100 is complete control, read-out: Pigweed plant response rating
[6] = tested on: ragweed (common ragweed, Ambrosia elatior); assay: Test A preemergence; settings: Ambrosia artemisiifolia, pre-emergence, 240 h, preemergence, 0 to 100 scale where 0 is no effect and 100 is complete control, read-out: Ragweed plant response rating
Summary of the method: as §1

[7] = tested on: Kochia (Kochia scoparia); assay: Test A postemergence; settings: Bassia scoparia, post-emergence, 240 h, postemergence
Summary of the method: as §1

[8] = tested on: giant foxtail (Setaria faberii); assay: Test A postemergence; settings: Setaria faberi, post-emergence, 240 h, postemergence
Summary of the method: as §1

[9] = tested on: wheat (Triticum aestivum); assay: Test A postemergence; settings: Triticum aestivum, post-emergence, 240 h, 125 g ai/ha, postemergence, visual injury vs untreated controls after approx. 10 d; 0 = no effect, 100 = complete control; read-out: Wheat plant response rating (0 to 100 scale)
Summary of the method: as §1

[10] = tested on: corn (Zea mays); assay: Test A postemergence; settings: Zea mays, post-emergence, 240 h, postemergence
Summary of the method: as §1

[11] = tested on: barnyardgrass (Echinochloa crus-galli); assay: Test A postemergence; settings: Echinochloa crus-galli, post-emergence, 240 h, postemergence
Summary of the method: as §1

[12] = tested on: Galium (catchweed bedstraw, Galium aparine); assay: Test A postemergence; settings: Galium, post-emergence, 240 h, postemergence
Summary of the method: as §1

[13] = tested on: blackgrass (Alopecurus myosuroides); assay: Test A postemergence; settings: Alopecurus myosuroides, post-emergence, 240 h, postemergence
Summary of the method: as §1

[14] = tested on: ryegrass, Italian (Italian ryegrass, Lolium multiflorum); assay: Test A postemergence; settings: Lolium multiflorum, post-emergence, 240 h, postemergence
Summary of the method: as §1

[15] = tested on: pigweed (Amaranthus retroflexus); assay: Test A postemergence; settings: Amaranthus retroflexus, post-emergence, 240 h, postemergence
Summary of the method: as §1

[16] = tested on: ragweed (common ragweed, Ambrosia elatior); assay: Test A postemergence; settings: Ambrosia artemisiifolia, post-emergence, 240 h, postemergence
Summary of the method: as §1

[17] = 125 g ai/ha, visual injury rating, approximately 10 d

`Cc1c(F)cccc1NC(=O)[C@H]1C(=O)N(C)C[C@@H]1c1ccc(F)cc1` [Compound 1235] was tested, and the pest or weed control at 125 g/ha [1, 17] was 60%, the pest or weed control at 500 g/ha ([1]; 500 g ai/ha) was 80% and the pest or weed control at 125 g/ha [2, 17] was 100%. It also gave a pest or weed control at 500 g/ha ([2]; 500 g ai/ha) of 100%, a pest or weed control at 125 g/ha [3, 17] of 100% and a pest or weed control at 500 g/ha ([3]; 500 g ai/ha) of 100%. It also gave a pest or weed control at 125 g/ha [4, 17] of 50%, a pest or weed control at 500 g/ha ([4]; 500 g ai/ha) of 60% and a pest or weed control at 125 g/ha [5, 17] of 30%. For the same molecule, the pest or weed control at 500 g/ha ([5]; 500 g ai/ha) was 90%, the pest or weed control at 125 g/ha [6, 17] was 70% and the pest or weed control at 500 g/ha ([6]; 500 g ai/ha) was 90%. It also gave a pest or weed control at 125 g/ha ([7]; 125 g ai/ha, visual injury vs untreated controls after approx. 10 d, 0 = no effect, 100 = complete control, read-out: Kochia plant response rating (0 to 100 scale)) of 30%, a pest or weed control at 500 g/ha ([7]; 500 g ai/ha, 0 to 100 scale, 0 is no effect, 100 is complete control, read-out: Kochia plant response rating) of 50% and a pest or weed control at 125 g/ha ([8]; 125 g ai/ha, visual injury vs untreated controls after approx. 10 d, 0 = no effect, 100 = complete control, read-out: Foxtail, Giant plant response rating (0 to 100 scale)) of 80%. For the same molecule, the pest or weed control at 500 g/ha ([8]; 500 g ai/ha, 0 to 100 scale, 0 is no effect, 100 is complete control, read-out: Foxtail, Giant plant response rating) was 90%, the plant injury at 125 g/ha [9] was 40% and the plant injury at 125 g/ha ([10]; 125 g ai/ha, visual injury vs untreated controls after approx. 10 d, 0 = no effect, 100 = complete control, read-out: Corn plant response rating (0 to 100 scale)) was 70%. It also gave a plant injury at 500 g/ha ([10]; 500 g ai/ha, 0 to 100 scale, 0 is no effect, 100 is complete control, read-out: Corn plant response rating) of 100%, a pest or weed control at 125 g/ha ([11]; 125 g ai/ha, visual injury vs untreated controls after approx. 10 d, 0 = no effect, 100 = complete control, read-out: Barnyardgrass plant response rating (0 to 100 scale)) of 90% and a pest or weed control at 500 g/ha ([11]; 500 g ai/ha, 0 to 100 scale, 0 is no effect, 100 is complete control, read-out: Barnyardgrass plant response rating) of 100%. For the same molecule, the pest or weed control at 125 g/ha ([12]; 125 g ai/ha, visual injury vs untreated controls after approx. 10 d, 0 = no effect, 100 = complete control, read-out: Galium plant response rating (0 to 100 scale)) was 50%, the pest or weed control at 500 g/ha ([12]; 500 g ai/ha, 0 to 100 scale, 0 is no effect, 100 is complete control, read-out: Galium plant response rating) was 70% and the pest or weed control at 125 g/ha ([13]; 125 g ai/ha, visual injury vs untreated controls after approx. 10 d, 0 = no effect, 100 = complete control, read-out: Blackgrass plant response rating (0 to 100 scale)) was 30%. The pest or weed control at 500 g/ha ([13]; 500 g ai/ha, 0 to 100 scale, 0 is no effect, 100 is complete control, read-out: Blackgrass plant response rating) was 40%, the pest or weed control at 125 g/ha ([14]; 125 g ai/ha, visual injury vs untreated controls after approx. 10 d, 0 = no effect, 100 = complete control, read-out: Ryegrass, Italian plant response rating (0 to 100 scale)) was 0% and the pest or weed control at 500 g/ha ([14]; 500 g ai/ha, 0 to 100 scale, 0 is no effect, 100 is complete control, read-out: Ryegrass, Italian plant response rating) was 30%. For the same molecule, the pest or weed control at 125 g/ha ([15]; 125 g ai/ha, visual injury vs untreated controls after approx. 10 d, 0 = no effect, 100 = complete control, read-out: Pigweed plant response rating (0 to 100 scale)) was 0%, the pest or weed control at 500 g/ha ([15]; 500 g ai/ha, 0 to 100 scale, 0 is no effect, 100 is complete control, read-out: Pigweed plant response rating) was 50% and the pest or weed control at 125 g/ha ([16]; 125 g ai/ha, visual injury vs untreated controls after approx. 10 d, 0 = no effect, 100 = complete control, read-out: Ragweed plant response rating (0 to 100 scale)) was 0%. The pest or weed control at 500 g/ha ([16]; 500 g ai/ha, 0 to 100 scale, 0 is no effect, 100 is complete control, read-out: Ragweed plant response rating) was 30%.

— patent publication US12077503B2, “Substituted cyclic amides and their use as herbicides” (FMC CORPORATION, priority 2015, dated 2024)
